This note sets out measurements from ChEMBL document CHEMBL3046546, “Synthesis and biological evaluation of a novel anti-malarial lead” (Med Chem Res, 2011).

As a reminder, the IC50 is the point on the concentration scale where inhibition reaches its midpoint. Low readings indicate greater potency in that assay, high ones weaker potency in that assay. As a reminder, the IC90 is the concentration at which the effect reaches the 90% level. Read a low IC90 as an effect from little substance.

Holding throughout (format): functional, organism-based
The subject of one assay is Escherichia coli. In words: Antimicrobial activity against Escherichia coli.
Another assay concerns Cryptococcus neoformans. In words: Antimicrobial activity against Cryptococcus neoformans.
A further assay concerns Leishmania donovani. In words: Antileishmanial activity against promastigotes of Leishmania donovani expressing firefly luciferase after 72 hr by luciferase assay.
A further assay has as its system Staphylococcus aureus. Briefly: Antimicrobial activity against methicillin-resistant Staphylococcus aureus.
The test system of assay [1] is Mycobacterium intracellulare. In words: Antimicrobial activity against Mycobacterium intracellulare.
Assay [2] relates to Plasmodium falciparum. Briefly: Antimalarial activity against chloroquine-sensitive Plasmodium falciparum D6 after 72 hr by […] assay. As to conditions: D6, 72 h.
Another assay concerns Candida albicans. In words: Antimicrobial activity against Candida albicans.
In assay [3] the test system is Plasmodium falciparum. In words: Antimalarial activity against chloroquine-resistant Plasmodium falciparum W2 after 72 hr by […] assay. As to conditions: W2, 72 h.
The next assay has as its system Aspergillus fumigatus. Briefly: Antimicrobial activity against Aspergillus fumigatus.

Activity calls are given as the source filed them. The rule behind the calls is not given here.

In the case of `CCOC(=O)C(=O)Nc1cc(Cc2ccc(CC)cc2)cc(NC(=O)Cc2ccc(Cc3cn(Cc4ccccc4)cn3)cc2)c1`, the outcome (with Escherichia coli; in the assay on Cryptococcus neoformans; in the assay with Staphylococcus aureus; in assay [1]; with Candida albicans; in the assay with Aspergillus fumigatus) was inactive. The figures for the IC50 in the assay with Leishmania donovani, with Plasmodium falciparum [2] and with Plasmodium falciparum [3] were 41 µM, 6.5 µM and 5.5 µM, respectively.

The compound `C[C@@H]1[C@H](O)[C@@H](C)/C=C/C=C/C=C/C=C/C=C/C=C/C=C/[C@H](O[C@@H]2O[C@H](C)[C@@H](O)[C@H](N)[C@@H]2O)C[C@@H]2O[C@](O)(C[C@@H](O)C[C@@H](O)[C@H](O)CC[C@@H](O)C[C@@H](O)CC(=O)O[C@H]1C)C[C@H](O)[C@H]2C(=O)O` [AMPHOTERICIN B] registered an IC90 with Leishmania donovani of 2.5 µM.

`CCOC(=O)Cc1ccc(Cc2cn(Cc3ccccc3)cn2)cc1`: the IC50 was 8 µM in the assay on Plasmodium falciparum [2] and 6.3 µM with Plasmodium falciparum [3].

As to `CCc1ccc(Cc2cc(N)cc(N)c2)cc1`, in the assay on Leishmania donovani, it took 69 µM to reach half-maximal inhibition (IC50) and the IC90 amounted to 134 µM.
